Results taken from patent US20140370521A1, “IDENTIFICATION OF TWO NOVEL BIOMARKERS FOR NIEMANN-PICK DISEASE TYPE C” (The USA , as Represented by the Secretary, Department of …, priority 2011, published 2014).
“Also recorded” adds a separate entry of the source.

Tests used:
[1] = tested on: galectin-3 (LGALS3); assay: Serum galectin-3 (LGALS3) by ELISA in NPC1 patients treated or not with miglustat; type: in vivo, human
Description: (§1) Since 60% of the patients were being treated with off-label miglustat, the effect of treatment on LGALS3 or CTSD concentrations were investigated. […] Since individual responses could be masked by the large degree of variation between patients, LGALS3 and CTSD concentrations were also assessed in serum samples from six patients before and after they begin the treatment.
(§2) The study was approved by the Eunice Kennedy Shriver National Institute of Child Health and Human Development Institutional Review Board. Informed consent and, when appropriate, assent were obtained. Serum samples were obtained from 16 male and 14 female NPC1 patients participating in a Natural History trial (06-CH-0186) and 16 control individuals of similar age and gender distribution. Mean age of patients and controls were 7.9±5.8 years old and 9.1±4.2 years old respectively (P-value=0.3720). Phenotypic severity was determined using the severity scale developed by Yanjanin et al., Am. J. Med. Genet. B. Neuropsychiatr. Genet. 153B:132-40 (2010), and ranged from 0 to 40. […]
(§3) Serum levels of cathepsin D (CTSD; EMD Millipore, Billerica, Mass.), and galectin-3 (LGALS3; R&D systems, Minneapolis, Minn.) were measured in triplicate by ELISA, following manufacturers' instructions. […]

[2] = NPC patients; Patterson et al., Lancet Neurol. 6:765-72 (2007); cited from earlier work
[3] = tested on: cathepsin D (CTSD); assay: Serum cathepsin D (CTSD) by ELISA in NPC1 patients treated or not with miglustat; type: in vivo, human
Description: as §1, §2, §3

Q: For `CCCCN1C[C@H](O)[C@@H](O)[C@H](O)[C@H]1CO` [miglustat], which “LGALS3 concentrations in serum of NPC patients treated or not with miglustat” value ([1]; NPC1 patients, off-label miglustat versus untreated group, serum, FIG. 7B) is on record?
A: The value was “No statistical difference; also recorded: no significant differences”.

Q: What about the “Effect of miglustat treatment on LGALS3 level, before versus after start of treatment” value ([1]; six patients, serum samples before and after beginning treatment, FIG. 7D) of the same compound?
A: The value was “did not have any effect”.

Q: What about the “Efficacy in slowing the neurological progression of the disease” value [2] of the same compound?
A: The value was “has shown efficacy in slowing the neurological progression of the disease”.

Q: What about the “CTSD concentrations in serum of NPC patients treated or not with miglustat” value ([3]; NPC1 patients, off-label miglustat versus untreated group, serum, FIG. 7C) of the same compound?
A: The value was “No statistical difference; also recorded: no significant differences”.

Q: What about the “Effect of miglustat treatment on CTSD level, before versus after start of treatment” value ([3]; six patients, serum samples before and after beginning treatment, FIG. 7E) of the same compound?
A: Its value is “did not have any effect”.
